From patent US7744867B2, “PTPase inhibitors and method of using same” (The Cleveland Clinic Foundation, priority 2001, dated 2010)

Columns and labels:
[1] = tested on: MDA231 cells (Breast cancer); experiment: Growth inhibition of human tumor cell lines (MTT); format: cell-based
Text: (§1) FIG. 9 illustrates growth inhibition of human cell lines of non-hematopoietic malignancies by sodium stibogluconate and/or IFNα. Percentage of growth inhibition of WM9 (A), DU145 (B), MDA231 (C) and WiT49-N1 (D) in the absence or presence of various amounts of sodium stibogluconate and/or IFNα (1,000 u/ml) in day 6 cultures as measured by MTT assays.

[2] = tested on: DU145 cells (Prostate cancer); experiment: Growth inhibition of human tumor cell lines (MTT); format: cell-based
Text: as §1

[3] = tested on: Stat1 tyrosine phosphorylation; experiment: IFNα-induced Stat1 tyrosine phosphorylation in cancer cell lines; format: cell-based, human
Experimental: Induction of Stat1 tyrosine phosphorylation by IFNα and/or sodium stibogluconate. For induction of Stat1 tyrosine phosphorylation by IFNα in the absence or presence of sodium stibogluconate, cells grown in 10% FCS RPMI 1640 medium at 37° C. were stimulated with IFNα (50 u/ml) for various time points and treated with or without sodium stibogluconate for 5 minutes prior to termination by lysing the cells in cold lysis buffer (1% NP-40; 50 mM Tris, pH 7.4; 100 mM NaCl; 1 mM EDTA, 10% glycerol, 10 mM sodium molybdic acid and 4 mM AEBSF).
Cell lysate preparation, SDS-PAGE, and Western blotting. Cell lysates were prepared by lysing cells in cold lysis buffer for 30 min and cleared by centrifuging at 14,000 rpm at 4° C. for 15 min. For SDS-PAGE, cell lysates were mixed with equal volume of 2×SDS-PAGE sample buffer, heated at 90° C. for 5 min and separated in 10% SDS-PAGE gels. Cellular proteins in SDS-PAGE gels were transferred to nitrocellulose membrane (Schleicher & Schuell), blocked in 5% milk, probed with antibodies and detected by using an enhanced chemiluminescence kit (ECL, Amersham).

DS cells (lymphoma) = experiment: Growth inhibition of human tumor cell lines (MTT); format: cell-based; details: day 3; IFNα 1,000 u/ml
Experimental: (§2) FIG. 8 illustrates growth inhibition of human cell lines of hematopoietic malignancies by sodium stibogluconate and/or IFNα: A and B. Growth of DS and DR cells cultured in the absence or presence of various amounts of sodium stibogluconate and/or IFNα (1,000 u/ml) for 3 days was measured by MTT assays; C. Percentage of growth inhibition of DR cells calculated from data in B; D. Percentage of growth inhibition of DR cells by IFNα (1,000 u/ml) and various amounts of sodium stibogluconate in day 6 cultures measured by MTT assays; E. Percentage of growth inhibition of U266 cells by IFNα (1,000 u/ml) and various amounts of sodium stibogluconate in day 6 cultures as measured by MTT assays.

WM9 cells (Melanoma) = experiment: Growth inhibition of human tumor cell lines (MTT); format: cell-based
Text: as §1
FIG. 10 illustrates sodium stibogluconate augments both IFNα- and IFNβ-induced growth inhibition of WM9 cells. Percentage of growth inhibition of WM9 cells in the absence or presence of various amounts of sodium stibogluconate, IFNα and IFNβ in day 6 cultures as measured by MTT assays. The data illustrates that sodium seems to interact with IFNα and IFNβ in a synergistic manner in growth inhibition of WM9 cells. Data from MTT antiproliferative assays was expressed as percent control growth (PCG) of treated cells, compared to untreated cells (100%). Median effect analysis (inset graphs), similar to isobol analysis, defined drug interaction in the IFNα+sodium stibogluconate and the IFNβ+sodium stibogluconate combinations as synergistic at all doses tested, characterized by a combination index (CI) of less than 1. Additivity is indicated by CI=1, and antagonism occurs when CI>1. Fraction affected (fa)=(100−PCG)/100.
Drug Interaction Analysis. Median effect analysis, which provides the most general form of studying the interactions between drugs, was utilized to analyze the interaction between sodium stibogluconate and IFNα or IFNβ. Since details regarding the mode of IFN and sodium stibogluconate interaction are not fully understood, and whether or not they act in a mutually exclusive fashion, we chose the most general analysis available. Dose response curves were generated for each drug alone, and also the combinations. Median effect plots were generated, which determined m and Dm values for IFN alone, sodium stibogluconate alone, and the combination. The combination index (CI) was determined and plotted vs. fraction affected (FA). Data were analyzed in both modes, mutually exclusive and mutually nonexclusive. […]

[4] = tested on: WiT49-N1 cells (Wilms tumor); experiment: Growth inhibition of human tumor cell lines (MTT); format: cell-based; details: SS 12.5 μg/ml, IFNα 1,000 u/ml, alone or combined
Text: as §1

[5] = tested on: DR cells (Burkitt's Lymphoma); experiment: Growth inhibition of human tumor cell lines (MTT); format: cell-based
Experimental: as §2

[6] = tested on: U266 cells (Multiple myeloma); experiment: Growth inhibition of human tumor cell lines (MTT); format: cell-based; details: SS 12.5 μg/ml, IFNα 1,000 u/ml, alone or combined
Experimental: as §2

[7] = tested on: RC45 cells (Renal cell carcinoma); experiment: Growth inhibition of human tumor cell lines; format: cell-based; details: SS 12.5 μg/ml, IFNα 1,000 u/ml, alone or combined

Compound	cell killing as a single agent ([1]; MDA231, 50 μg/ml and 100 μg/ml, day 6 culture)	cell killing as a single agent ([2]; 50 μg/ml and 100 μg/ml, day 6 culture)	IFNα-induced Stat1 tyrosine phosphorylation relative to control ([3]; DR cells, 10 μg/ml, 30 min post-stimulation)	Stat1 tyrosine phosphorylation by the drug itself ([3]; DR cells, absence of IFNα)	IFNα-induced Stat1 tyrosine phosphorylation ([3]; DU145 cells, 5 hours post-stimulation)	IFNα-induced Stat1 tyrosine phosphorylation ([3]; WM9 cells, 5 hours post-stimulation)	IFNα-induced Stat1 tyrosine phosphorylation ([3]; WM35 cells)	IFNα-induced Stat1 tyrosine phosphorylation ([3]; WiT49-N1 cells)	activity against DS cells (DS cells (lymphoma))	cell killing as a single agent (WM9 cells (Melanoma); WM9, 50 μg/ml and 100 μg/ml, day 6 culture)	% of growth inhibition by day 6 (±s.d.) ([1]; MDA231, SS 12.5 μg/ml, IFNα 1,000 u/ml, alone or combined)	growth inhibition of MDA231 breast cancer cells ([1]; drug at 25 μg/ml, agents individually or in combination) [%]	% of growth inhibition by day 6 (±s.d.) ([2]; SS 12.5 μg/ml, IFNα 1,000 u/ml, alone or combined)	% of growth inhibition by day 6 (±s.d.) [4]	% of growth inhibition by day 6 (±s.d.) ([5]; DR, SS 12.5 μg/ml, IFNα 1,000 u/ml, alone or combined) [%]	growth inhibition of DR cells, day 3 ([5]; IFNα 1,000 u/ml alone or with various amounts of sodium stibogluconate, day 3) [%]	% of growth inhibition by day 6 (±s.d.) [6]	% of growth inhibition by day 6 (±s.d.) [7]	% of growth inhibition by day 6 (±s.d.) (WM9 cells (Melanoma); WM9, SS 12.5 μg/ml, IFNα 1,000 u/ml, alone or combined)	growth inhibition of WM-9 melanoma cells (WM9 cells (Melanoma); drug at 25-100 μg/ml, agents individually or in combination) [%]
O.O.O.O.O.O.O.O.O.O=C([O-])[C@@H]1[O][Sb]2([O-])([O][Sb]34([OH])[O][C@H]([C@H](O)CO)[C@H]([O]3)[C@H](C(=O)[O-])[O]4)[O][C@H]([C@H](O)CO)[C@@H]1[O]2.[Na+].[Na+].[Na+] [sodium stibogluconate]	killed all cells	killed all cells	approximately two	failed to induced	Enhanced	Enhanced	failed to enhance	failed to enhance	modest activity	killed all cells	–	–	–	–	–	–	–	–	–	–
IFNα	–	–	–	–	–	–	–	–	almost completely eliminated	–	79 (2) %	79	70 (5) %	22 (11) %	39	19	78 (10) %	70 (15) %	58 (2) %	58
